Experimental data: patent publication US20110020460A1, “GPR 119 MODULATORS” (Pfizer Inc., priority 2009, published 2011)
“And” between values parts separate entries of the source, which are not always exact repeats. Equal entries are not always repeated.

Legend:
human GPR119 [1] = biological target: T1, human GPR119 (Homo sapiens, UniProt Q8TDV5); experiment: GPR119 radioligand binding assay ([3H]-Compound A or [3H]-Compound B, HEK 293FT membranes); conditions: Ki from IC50 by Cheng-Prusoff; one value per run; read-out: Human Binding Ki
T1 construct: host or cells: HEK293-CRE-beta-lactamase
T1 sequence (Q8TDV5 1-335): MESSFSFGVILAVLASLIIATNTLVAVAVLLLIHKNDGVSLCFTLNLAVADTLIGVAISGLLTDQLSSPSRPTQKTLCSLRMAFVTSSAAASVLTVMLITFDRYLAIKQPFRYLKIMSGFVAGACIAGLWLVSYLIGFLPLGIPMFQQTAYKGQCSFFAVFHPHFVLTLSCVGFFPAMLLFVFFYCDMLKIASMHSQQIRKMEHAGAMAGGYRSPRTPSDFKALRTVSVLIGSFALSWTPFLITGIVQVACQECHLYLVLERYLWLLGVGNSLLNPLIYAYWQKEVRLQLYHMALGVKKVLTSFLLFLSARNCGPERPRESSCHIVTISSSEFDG
Protocol: Cells were harvested via centrifugation (3,000×g, 10 minutes), washed once on DPBS (minus Ca++/Mg++), resuspended in 0.25M sucrose, 25 mM HEPES, 0.5 mM EDTA, pH 7.4 and frozen at −80 degrees Celsius.
The frozen cells were thawed on ice and centrifuged at 700×g (1400 rpm) for 10 minutes at 4 degrees Celsius. The cell pellet was resuspended in 20 mL phosphate-buffered saline, and centrifuged at 1400 rpm for 10 minutes. […] Cells were then lysed with 15 gentle strokes of a tight-fitting glass Dounce homogenizer. The homogenate was centrifuged at 1000×g (2200 rpm) for 10 minutes at 4 degrees Celsius. The supernatant was transferred into fresh centrifuge tubes on ice. The cell pellet was resuspended in homogenization buffer, and centrifuged again at 1000×g (2200 rpm) for 10 minutes at 4 degrees Celsius after which the supernatant was removed and the pellet resuspended in homogenization buffer. […] The solution was then centrifuged at 25,000×g (15000 rpm) for 20 minutes at 4 degrees Celsius, the supernatant was discarded, and the pellet was resuspended in fresh homogenization buffer (minus Benzonase and MgCl2). After repeating the 25,000×g centrifugation step, the final membrane pellet was resuspended in homogenization buffer and frozen at −80 degrees Celsius.
2 microL of each dilution was added to appropriate wells of a 96-well plate (each concentration in triplicate).
Membranes expressing GPR119 were thawed and diluted to a final concentration of 20 μg/100 microL per well in Binding Buffer, and 100 microL of diluted membranes were added to each well of 96-well plate.
The plate was incubated for 60 minutes w/shaking at room temperature (approximately 25 degrees Celsius). […] Filters were then washed six times using washing buffer (50 mM Tris-HCl, pH 7.5 kept at 4 degrees Celsius). The filter plates were then air-dyed at room temperature overnight.
IC50 determinations were made from competition curves, analyzed with a proprietary curve fitting program (SIGHTS) and a 4-parameter logistic dose response equation. Ki values were calculated from IC50 values, using the Cheng-Prusoff equation.

human GPR119 [2] = biological target: T1, human GPR119; experiment: cAMP HTRF functional assay (hGPR119 HEK-CRE beta-lactamase cells); assay type: cell-based; conditions: one value per run; for Intrinsic Activity* (cAMP) / Emax: percent of maximal activity relative to standard GPR119 agonist (WO2005121121) at 10 μM; for Emax: read-out: Intrinsic Activity* (cAMP); for EC50: hGPR119 HEK-CRE beta-lactamase cells, HTRF cAMP
Protocol: GPR119 agonist activity was also determined with a cell-based assay utilizing an HTRF (Homogeneous Time-Resolved Fluorescence) cAMP detection kit (cAMP dynamic 2 Assay Kit; Cis Bio cat #62AM4PEC) that measures cAMP levels in the cell. The method is a competitive immunoassay between native cAMP produced by the cells and the cAMP labeled with the dye d2. The tracer binding is visualized by a Mab anti-cAMP labeled with Cryptate. The specific signal (i.e. energy transfer) is inversely proportional to the concentration of cAMP in either standard or sample.
Following 30 minutes incubation at room temperature, 5 microL of labeled d2 cAMP and 5 microL of anti-cAMP antibody (both diluted 1:20 in cell lysis buffer; as described in the manufacturers assay protocol) were added to each well of the assay plate. […] Raw data were converted to nM cAMP by interpolation from a cAMP standard curve (as described in the manufacturer's assay protocol) and EC50 determinations were made from an agonist-response curves analyzed with a curve fitting program using a 4-parameter logistic dose response equation.

human GPR119 [3] = biological target: T2, human GPR119 (Homo sapiens, UniProt Q8TDV5); experiment: beta-arrestin functional assay (DiscoverX PathHunter U2OS hGPR119 beta-arrestin cells); assay type: cell-based; conditions: for EC50: read-out: Human B-arrestin Functional EC50; for Emax: U2OS, read-out: Intrinsic Activity* (B-arrestin)
T2 construct: host or cells: U2OS
Protocol: GPR119 agonist activity was also determined with a cell-based assay utilizing DiscoverX PathHunter β-arrestin cell assay technology and their U2OS hGPR119 β-arrestin cell line (DiscoverX Cat #93-0356C3). In this assay, agonist activation is determined by measuring agonist-induced interaction of […] with activated GPR119. A small, 42 amino acid enzyme fragment, called ProLink was appended to the C-terminus of GPR119. Arrestin was fused to the larger enzyme fragment, termed EA (Enzyme Acceptor). Activation of GPR119 stimulates binding of arrestin and forces the complementation of the two enzyme fragments, resulting in formation of a functional β-galactosidase enzyme capable of hydrolyzing substrate and generating a chemiluminescent signal.
EC50 determinations were made from an agonist-response curves analyzed with a curve fitting program using a 4-parameter logistic dose response equation.
T2 sequence (P32121 whole entry partner, one chain of several): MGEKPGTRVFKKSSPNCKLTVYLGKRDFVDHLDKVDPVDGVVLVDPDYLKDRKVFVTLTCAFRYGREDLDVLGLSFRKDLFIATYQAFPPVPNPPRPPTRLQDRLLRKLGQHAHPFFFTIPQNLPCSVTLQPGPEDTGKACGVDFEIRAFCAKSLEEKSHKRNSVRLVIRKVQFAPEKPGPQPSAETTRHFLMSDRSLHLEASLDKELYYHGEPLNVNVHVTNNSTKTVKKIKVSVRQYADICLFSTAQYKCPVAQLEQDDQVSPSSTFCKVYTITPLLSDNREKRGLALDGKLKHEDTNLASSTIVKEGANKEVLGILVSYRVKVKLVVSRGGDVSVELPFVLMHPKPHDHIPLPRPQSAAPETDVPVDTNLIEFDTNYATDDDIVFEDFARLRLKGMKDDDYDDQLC

human GPR119 [4] = biological target: T1, human GPR119; experiment: beta-lactamase reporter functional assay (hGPR119 HEK293-CRE beta-lactamase cells); assay type: cell-based; conditions: one value per run; for EC50: hGPR119 HEK293-CRE beta-lactamase cells, read-out: Human B-lactamase Functional EC50; for Intrinsic Activity* (B-lactamase) / Emax: percent of maximal activity relative to standard GPR119 agonist (WO2005121121) at 10 microM; for Emax: read-out: Intrinsic Activity* (B-lactamase)
Protocol: The assay for GPR119 agonists utilizes a cell-based (hGPR119 HEK293-CRE beta-lactamase) reporter construct where agonist activation of human GPR119 is coupled to beta-lactamase production via a cyclic AMP response element (CRE). GPR119 activity is then measured utilizing a FRET-enabled beta-lactamase substrate, CCF4-AM (Live Blazer FRET-B/G Loading kit, Invitrogen cat #K1027). […] After 4 hours the plating medium was removed and replaced with 40 microL of assay medium (Assay medium is plating medium without potassium clavulanate and HIFBS). Varying concentrations of each compound to be tested was then added in a volume of 10 microL (final DMSO≦0.5%) and the cells were incubated for 16 hours at 37 degrees Celsius in a humidified environment containing 5% carbon dioxide. Plates were removed from the incubator and allowed to equilibrate to room temperature for approximately 15 minutes. 10 microL of 6×CCF4/AM working dye solution (prepared according to instructions in the Live Blazer FRET-B/G Loading kit, Invitrogen cat #K1027) was added per well and incubated at room temperature for 2 hours in the dark. Fluorescence was measured on an EnVision fluorimetric plate reader, excitation 405 nm, emission 460 nm/535 nm. EC50 determinations were made from agonist-response curves analyzed with a curve fitting program using a 4-parameter logistic dose-response equation.

[5] = U2OS hGPR119 beta-arrestin cells, one value per run
[6] = percent of maximal activity relative to standard GPR119 agonist (WO2005121121) at 10 microM, one value per run
[7] = **curve was extrapolated to 100% to calculate an EC50

Ki (human GPR119 [1])	Intrinsic Activity* (cAMP) (human GPR119 [2])	Emax (human GPR119 [2]) [%]	EC50 (human GPR119 [3]; [5]) [nM]	Emax (human GPR119 [3]; [6]) [%]	EC50 (human GPR119 [4])	Intrinsic Activity* (B-lactamase) (human GPR119 [4])	Emax (human GPR119 [4]) [%]	EC50 (human GPR119 [2])	EC50 (human GPR119 [3]; [7]) [nM]	Emax (human GPR119 [3]; [7]) [%]	Compound
5 nM and 10 nM and 37 nM	91% and 74% and 79% and 84%	86	4	111	8 nM and 11 nM and 6 nM	105% and 96%	98				CC(C)OC(=O)N1CCC(n2ncc(COc3ccc(-n4cnnn4)cc3F)c2C#N)CC1 [Example 3, Isopropyl 4-(5-cyano-4-{[2-fluoro-4-(1H-tetrazol-1-yl)phenoxy]-methyl}-1H-pyrazol-1-yl)piperidine-1-carboxylate]
	75% and 74%	89	16	80	20 nM and 39 nM and 64 nM	102% and 94%	100	9 nM and 6 nM and 7 nM			CC(C)OC(=O)N1CCC(n2ncc(COc3ccc(C#N)cc3F)c2C#N)CC1 [Example 8, Isopropyl 4-{5-cyano-4-[(4-cyano-2-fluorophenoxy)methyl]-1H-pyrazol-1-yl}piperidine-1-carboxylate]
149 nM	87%	95	217	119				180 nM and 112 nM			CC1(OC(=O)N2CCC(n3ncc(COc4cc(F)ccc4F)c3C#N)CC2)CC1 [Example 13, 1-Methylcyclopropyl 4-{5-cyano-4-[(2,5-difluorophenoxy)methyl]-1H-pyrazol-1-yl}piperidine-1-carboxylate]
723 nM	78%	74	495	109				436 nM and 494 nM			CC1(OC(=O)N2CCC(n3ncc(COc4cccc(F)c4F)c3C#N)CC2)CC1 [Example 14, 1-Methylcyclopropyl 4-{5-cyano-4-[(2,3-difluorophenoxy)methyl]-1H-pyrazol-1-yl}piperidine-1-carboxylate]
268 nM and 160 nM	102% and 112% and 131%		63	104				198 nM and 106 nM and 129 nM			CC1(OC(=O)N2CCC(n3ncc(COc4ccc(C(N)=O)cc4F)c3C#N)CC2)CC1 [Example 15, 1-Methylcyclopropyl 4-{4-[(4-carbamoyl-2-fluorophenoxy)methyl]-5-cyano-1H-pyrazol-1-yl}piperidine-1-carboxylate]
	102% and 119%	105	472					204 nM and 165 nM and 316 nM	420	100	CC1(OC(=O)N2CCC(n3ncc(COc4ccc(C(N)=O)cc4)c3C#N)CC2)CC1 [Example 16, 1-Methylcyclopropyl 4-{4-[(4-carbamoylphenoxy)methyl]-5-cyano-1H-pyrazol-1-yl}piperidine-1-carboxylate]
	91%	95	161	67				39 nM and 26 nM			CC1(OC(=O)N2CCC(n3ncc(COc4ccc(C#N)cc4)c3C#N)CC2)CC1 [Example 17, 1-Methylcyclopropyl 4-(5-cyano-4-((4-cyanophenoxy)methyl)-1H-pyrazol-1-yl)piperidine-1-carboxylate]
462 nM	109%	107	155	92				56 nM and 52 nM			CC1(OC(=O)N2CCC(n3ncc(COc4c(F)ccc(F)c4F)c3C#N)CC2)CC1 [Example 31, 1-Methylcyclopropyl 4-{5-cyano-4-[(2,3,6-trifluorophenoxy)methyl]-1H-pyrazol-1-yl}piperidine-1-carboxylate]
	92%	85						244 nM and 274 nM	1330	100	CC(C)OC(=O)N1CCC(n2ncc(COc3ccc(-c4nccn4C)cc3F)c2C#N)CC1 [Example 33, Isopropyl 4-(5-cyano-4-{[2-fluoro-4-(1-methyl-1H-imidazol-2-yl)phenoxy]methyl}-1H-pyrazol-1-yl)piperidine-1-carboxylate]
416 nM		56			328 nM and 805 nM	105%	114	1160 nM			Cc1nc(S(C)(=O)=O)ccc1NCc1cnn(C2CCN(C(=O)OC(C)C)CC2)c1C#N [Example 37, Isopropyl 4-[5-cyano-4-({[2-methyl-6-(methylsulfonyl)pyridin-3-yl]amino}methyl)-1H-pyrazol-1-yl]piperidine-1-carboxylate]
